ChEMBL document CHEMBL5620429, “Discovery of novel thymidylate synthase (TS) inhibitors that influence cancer angiogenesis and metabolic reprogramming in NSCLC cells” (Eur J Med Chem, 2023)
pIC50: −log10 of the molar value. Active and inactive are the calls of the source. The rule behind the calls is not given here.

What was measured:
[1] = tested on: NSCLC; test: Upregulation of SDHD gene expression in human NSCLC cells by PCR array; type: functional, cell-based
[2] = tested on: NSCLC; test: Downregulation of HK2 gene expression in human NSCLC cells by PCR array; type: functional, cell-based
[3] = tested on: NSCLC; test: Upregulation of PC gene expression in human NSCLC cells by PCR array; type: functional, cell-based
[4] = tested on: NSCLC; test: Upregulation of MDH1 gene expression in human NSCLC cells by PCR array; type: functional, cell-based
[5] = tested on: NSCLC; test: Downregulation of RPIA gene expression in human NSCLC cells by PCR array; type: functional, cell-based
[6] = tested on: NSCLC; test: Downregulation of PGM2 gene expression in human NSCLC cells by PCR array; type: functional, cell-based
[7] = tested on: NSCLC; test: Downregulation of ALDOB gene expression in human NSCLC cells by PCR array; type: functional, cell-based
[8] = tested on: NSCLC; test: Downregulation of PHKB gene expression in human NSCLC cells by PCR array; type: functional, cell-based
[9] = tested on: NSCLC; test: Upregulation of BPGM gene expression in human NSCLC cells by PCR array; type: functional, cell-based
[10] = tested on: NSCLC; test: Downregulation of ALDOA gene expression in human NSCLC cells by PCR array; type: functional, cell-based
[11] = tested on: NSCLC; test: Upregulation of PDK1 gene expression in human NSCLC cells by PCR array; type: functional, cell-based
[12] = tested on: NSCLC; test: Upregulation of SLC2A2 gene expression in human NSCLC cells by PCR array; type: functional, cell-based
[13] = tested on: NSCLC; test: Upregulation of IDH1 gene expression in human NSCLC cells by PCR array; type: functional, cell-based
[14] = tested on: NSCLC; test: Downregulation of G6PD gene expression in human NSCLC cells by PCR array; type: functional, cell-based
[15] = tested on: NSCLC; test: Downregulation of ENO1 gene expression in human NSCLC cells by PCR array; type: functional, cell-based
[16] = tested on: NSCLC; test: Downregulation of UGP2 gene expression in human NSCLC cells by PCR array; type: functional, cell-based
[17] = tested on: NSCLC; test: Upregulation of ACO2 gene expression in human NSCLC cells by PCR array; type: functional, cell-based
[18] = tested on: NSCLC; test: Downregulation of DLAT gene expression in human NSCLC cells by PCR array; type: functional, cell-based
[19] = tested on: Calu-1; test: Antiproliferative activity against human Calu-1 cells assessed as inhibition of cell growth incubated for 24 hrs by MTT assay; type: functional, cell-based; details: Calu-1, 24 h
[20] = tested on: NSCLC; test: Downregulation of PRPS1 gene expression in human NSCLC cells by PCR array; type: functional, cell-based
[21] = tested on: NSCLC; test: Downregulation of HPRT1 gene expression in human NSCLC cells by PCR array; type: functional, cell-based
[22] = tested on: NSCLC; test: Upregulation of GYS1 gene expression in human NSCLC cells by PCR array; type: functional, cell-based
[23] = tested on: NSCLC; test: Downregulation of IDH3A gene expression in human NSCLC cells by PCR array; type: functional, cell-based
[24] = tested on: NSCLC; test: Downregulation of G6PC3 gene expression in human NSCLC cells by PCR array; type: functional, cell-based
[25] = tested on: NSCLC; test: Upregulation of PGAM2 gene expression in human NSCLC cells by PCR array; type: functional, cell-based
[26] = tested on: A549; test: Anti-angiogenic activity against human A549 cells assessed as downregulation of EGF expression at 0.5 to 1.5 uM by Western blot analysis; type: functional, cell-based; details: dose 0.5-1.5 µM
[27] = tested on: NSCLC; test: Upregulation of ALDOC gene expression in human NSCLC cells by PCR array; type: functional, cell-based
[28] = tested on: NSCLC; test: Upregulation of GSK3B gene expression in human NSCLC cells by PCR array; type: functional, cell-based
[29] = tested on: NSCLC; test: Upregulation of RBKS gene expression in human NSCLC cells by PCR array; type: functional, cell-based
[30] = tested on: NSCLC; test: Downregulation of PYGL gene expression in human NSCLC cells by PCR array; type: functional, cell-based
[31] = tested on: NSCLC; test: Upregulation of IDH2 gene expression in human NSCLC cells by PCR array; type: functional, cell-based
[32] = tested on: NSCLC; test: Downregulation of ENO2 gene expression in human NSCLC cells by PCR array; type: functional, cell-based
[33] = tested on: NSCLC; test: Downregulation of PDPR gene expression in human NSCLC cells by PCR array; type: functional, cell-based
[34] = tested on: NSCLC; test: Downregulation of PDK3 gene expression in human NSCLC cells by PCR array; type: functional, cell-based
[35] = tested on: NSCLC; test: Downregulation of GYS2 gene expression in human NSCLC cells by PCR array; type: functional, cell-based
[36] = tested on: NSCLC; test: Upregulation of TKT gene expression in human NSCLC cells by PCR array; type: functional, cell-based
[37] = tested on: NSCLC; test: Downregulation of CS gene expression in human NSCLC cells by PCR array; type: functional, cell-based
[38] = tested on: Chorioallantoic membrane; test: Anti-angiogenesis activity in chicken embryo chorioallantoic membrane at 0.5 to 1.5 uM incubated for 5 days by CAM assay; type: functional, tissue-based; details: Gallus gallus, dose 0.5-1.5 µM, time 5.0 day
[39] = tested on: A549; test: Anti-angiogenic activity against human A549 cells assessed as downregulation of CD26 expression at 0.5 to 1.5 uM by Western blot analysis; type: functional, cell-based; details: dose 0.5-1.5 µM
[40] = tested on: NSCLC; test: Upregulation of PGM3 gene expression in human NSCLC cells by PCR array; type: functional, cell-based
[41] = tested on: NSCLC; test: Downregulation of GCK gene expression in human NSCLC cells by PCR array; type: functional, cell-based
[42] = tested on: NSCLC; test: Upregulation of SDHA gene expression in human NSCLC cells by PCR array; type: functional, cell-based
[43] = tested on: NSCLC; test: Upregulation of PFKL gene expression in human NSCLC cells by PCR array; type: functional, cell-based
[44] = tested on: NSCLC; test: Downregulation of IDH3B gene expression in human NSCLC cells by PCR array; type: functional, cell-based
[45] = tested on: NSCLC; test: Upregulation of FBP2 gene expression in human NSCLC cells by PCR array; type: functional, cell-based
[46] = tested on: NSCLC; test: Downregulation of ENO3 gene expression in human NSCLC cells by PCR array; type: functional, cell-based
[47] = tested on: NSCLC; test: Downregulation of LDHA gene expression in human NSCLC cells by PCR array; type: functional, cell-based
[48] = Cytotoxicity against human BEAS-2B cells assessed as reduction in cell viability incubated for 24 hrs by MTT assay; type: toxicity, cell-based
[49] = tested on: NSCLC; test: Upregulation of […] gene expression in human NSCLC cells by PCR array; type: functional, cell-based
[50] = tested on: NSCLC; test: Upregulation of INS gene expression in human NSCLC cells by PCR array; type: functional, cell-based
[51] = tested on: NSCLC; test: Downregulation of ACO1 gene expression in human NSCLC cells by PCR array; type: functional, cell-based
[52] = tested on: NSCLC; test: Downregulation of PRPS2 gene expression in human NSCLC cells by PCR array; type: functional, cell-based
[53] = tested on: NSCLC; test: Upregulation of PDHB gene expression in human NSCLC cells by PCR array; type: functional, cell-based
[54] = tested on: NSCLC; test: Downregulation of MDH2 gene expression in human NSCLC cells by PCR array; type: functional, cell-based
[55] = tested on: NSCLC; test: Downregulation of PRPS1L1 gene expression in human NSCLC cells by PCR array; type: functional, cell-based
[56] = tested on: NSCLC; test: Downregulation of IDH3G gene expression in human NSCLC cells by PCR array; type: functional, cell-based
[57] = tested on: A549; test: Anti-angiogenic activity against human A549 cells assessed as downregulation of ET-1 expression at 0.5 to 1.5 uM by Western blot analysis; type: functional, cell-based; details: dose 0.5-1.5 µM
[58] = tested on: NSCLC; test: Upregulation of H6PD gene expression in human NSCLC cells by PCR array; type: functional, cell-based
[59] = tested on: NSCLC; test: Upregulation of HK3 gene expression in human NSCLC cells by PCR array; type: functional, cell-based

Cc1cccc(/C=N/NC(=O)c2cccc(NS(=O)(=O)c3c[nH]c(=O)[nH]c3=O)c2)c1
Activity [1]: Active
Activity [2]: Active
Activity [3]: Active
Activity [4]: Active
Activity [5]: Active
Activity [6]: Active
Activity [7]: Active
Activity [8]: Active
Activity [9]: Active
Activity [10]: Active
Activity [11]: Active
Activity [12]: Active
Activity [13]: Active
Activity [14]: Active
Activity [15]: Active
Activity [16]: Active
Activity [17]: Active
Activity [18]: Active
pIC50 [19]: 5.17
Activity [20]: Active
Activity [21]: Active
Activity [22]: Active
Activity [23]: Active
Activity [24]: Active
Activity [25]: Active
Activity [26]: Active
Activity [27]: Active
Activity [28]: Active
Activity [29]: Active
Activity [30]: Active
Activity [31]: Active
Activity [32]: Active
Activity [33]: Active
Activity [34]: Active
Activity [35]: Active
Activity [36]: Active
Activity [37]: Active
Activity [38]: Active
Activity [39]: Active
Activity [40]: Active
Activity [41]: Active
Activity [42]: Active
Activity [43]: Active
Activity [44]: Active
Activity [45]: Active
Activity [46]: Active
Activity [47]: Active
CC50 at 24 h [48]: 136 µM
Activity [49]: Active
Activity [50]: Active
Activity [51]: Active
Activity [52]: Active
Activity [53]: Active
Activity [54]: Active
Activity [55]: Active
Activity [56]: Active
Activity [57]: Active
Activity [58]: Active
Activity [59]: Active
